Test results taken from patent US20230301300A1, “HERBICIDAL COMPOSITIONS” (SYNGENTA CROP PROTECTION AG, priority 2020, published 2023).

How the values were obtained:
Assay type in all cases: in vivo
Glycine max (GLXMA) = assay: B2 Post-Emergence Efficacy - Test 2; settings: 15 days after application; for Herbicidal activity GLXMA: 0-100 scale; for Herbicidal activity on a 0-100 scale, GLXMA: 0=no damage, 100=total kill
Description: (§1) Seeds of a variety of test species (see Table B1) were sown in standard soil in pots. After cultivation for 12 days (post-emergence) under controlled conditions in a glasshouse (at 24/18° C. or 20/16° C., at day/night; 16 hours light; 65% humidity), the plants were sprayed with an aqueous spray solution derived from the formulation of the technical active ingredient dissolved in IF50 (see Table B2 for composition) and adjuvant (Genapol X080) was added to the spray solution at a rate of 0.2% v/v.
(§2) After application, the test plants were grown in a glasshouse under controlled conditions (as above) and watered twice daily. Herbicidal activity was evaluated 15 days after application on a 0-100 scale. The results, where 0=no damage to test plant and 100=total kill of test plant are shown below in Tables 8 to 11.

[1] = system: Alopecurus myosuroides (ALOMY); assay: B2 Post-Emergence Efficacy - Test 2; settings: 15 days after application, 0-100 scale
Description: as §1, §2

Zea mays (ZEAMX) = assay: B2 Post-Emergence Efficacy - Test 2; settings: 15 days after application; for Herbicidal activity ZEAMX: 0-100 scale; for Herbicidal activity on a 0-100 scale, ZEAMX: 0=no damage, 100=total kill
Description: as §1, §2

[2] = system: Amaranthus retroflexus (AMARE); assay: B2 Post-Emergence Efficacy - Test 2; settings: 15 days after application, 0-100 scale
Description: as §1, §2

Eleisine indica (ELEIN) = assay: B2 Post-Emergence Efficacy - Test 2; settings: 15 days after application, 0=no damage, 100=total kill
Description: as §1, §2

Bromus tectorum (BROTE) = assay: B2 Post-Emergence Efficacy - Test 2; settings: 15 days after application, 0-100 scale
Description: as §1, §2

Beta vulgaris (BEAVA) = assay: B2 Post-Emergence Efficacy - Test 2; settings: 15 days after application, 0-100 scale
Description: as §1, §2

[3] = system: Echinochloa crus galli (ECHCG); assay: B2 Post-Emergence Efficacy - Test 2; settings: 15 days after application, 0=no damage, 100=total kill
Description: as §1, §2

[4] = system: Abutilon theophrasti (ABUTH); assay: B2 Post-Emergence Efficacy - Test 2; settings: 15 days after application, 0-100 scale
Description: as §1, §2

Hordeum vulgare (HORVW) = assay: B2 Post-Emergence Efficacy - Test 2; settings: 15 days after application, 0-100 scale
Description: as §1, §2

Setaria faberi (SETFA) [5] = assay: B2 Post-Emergence Efficacy - Test 2; settings: 15 days after application, 0=no damage, 100=total kill
Description: as §1, §2

[6] = system: Ipomoea hederacea (IPOHE); assay: B1 Post-Emergence Efficacy - Test 1; settings: 1000 g/ha, after 13 days, five point scale
How it was run: (§3)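 Seeds sown in standard soil grow for 8 days under glasshouse conditions (24/16° C., 14 hours light, 65% humidity). Seedlings are then sprayed at 1000 g/ha from an acetone/water (50:50), 0.5% Tween 20 formulation. Damage is rated after 13 days on a five-point scale.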

[7] = system: Amaranthus retoflexus (AMARE); assay: B1 Post-Emergence Efficacy - Test 1; settings: 1000 g/ha, after 13 days, five point scale
How it was run: as §3

Lolium perenne (LOLPE) = assay: B1 Post-Emergence Efficacy - Test 1; settings: 1000 g/ha, after 13 days, five point scale
How it was run: as §3

Solanum nigrum (SOLNI) = assay: B1 Post-Emergence Efficacy - Test 1; settings: 1000 g/ha, after 13 days, five point scale
How it was run: as §3

Setaria faberi (SETFA) [8] = assay: B1 Post-Emergence Efficacy - Test 1; settings: 1000 g/ha, after 13 days, five point scale
How it was run: as §3

[9] = system: Echinochloa crus-galli (ECHCG); assay: B1 Post-Emergence Efficacy - Test 1; settings: 1000 g/ha, after 13 days, five point scale
How it was run: as §3

Cc1nn(C)c(=O)c(-c2c(F)ccc(Cl)c2CCc2ccc(F)cc2)c1OC(=O)C(C)C [Compound 1.125, [5-[3-chloro-6-fluoro-2-[2-(4-fluorophenyl)ethyl]phenyl]-1,3-dimethyl-6-oxo-pyridazin-4-yl] 2-methylpropanoate]
Herbicidal activity GLXMA (Glycine max (GLXMA); 15 g/Ha): 40 | Herbicidal activity on a 0-100 scale, GLXMA (Glycine max (GLXMA); 15 g/Ha): 40 | Herbicidal activity GLXMA (Glycine max (GLXMA); 30 g/Ha): 70 | Herbicidal activity on a 0-100 scale, GLXMA (Glycine max (GLXMA); 30 g/Ha): 70 | Herbicidal activity GLXMA (Glycine max (GLXMA); 60 g/Ha): 70 | Herbicidal activity on a 0-100 scale, GLXMA (Glycine max (GLXMA); 60 g/Ha): 70 | Herbicidal activity GLXMA (Glycine max (GLXMA); 250 g/Ha): 90 | Herbicidal activity on a 0-100 scale, GLXMA (Glycine max (GLXMA); 250 g/Ha): 90 | Herbicidal activity GLXMA (Glycine max (GLXMA); 500 g/Ha): 90 | Herbicidal activity on a 0-100 scale, GLXMA (Glycine max (GLXMA); 500 g/Ha): 90 | Herbicidal activity ALOMY ([1]; 15 g/Ha): 10 | Herbicidal activity ALOMY ([1]; 30 g/Ha): 10 | Herbicidal activity ALOMY ([1]; 60 g/Ha): 30 | Herbicidal activity ALOMY ([1]; 125 g/Ha): 30 | Herbicidal activity ALOMY ([1]; 250 g/Ha): 60 | Herbicidal activity ALOMY ([1]; 500 g/Ha): 40 | Herbicidal activity ZEAMX (Zea mays (ZEAMX); 15 g/Ha): 0 | Herbicidal activity on a 0-100 scale, ZEAMX (Zea mays (ZEAMX); 15 g/Ha): 0 | Herbicidal activity ZEAMX (Zea mays (ZEAMX); 30 g/Ha): 20 | Herbicidal activity on a 0-100 scale, ZEAMX (Zea mays (ZEAMX); 30 g/Ha): 20 | Herbicidal activity ZEAMX (Zea mays (ZEAMX); 60 g/Ha): 30 | Herbicidal activity on a 0-100 scale, ZEAMX (Zea mays (ZEAMX); 60 g/Ha): 30 | Herbicidal activity ZEAMX (Zea mays (ZEAMX); 125 g/Ha): 20 | Herbicidal activity on a 0-100 scale, ZEAMX (Zea mays (ZEAMX); 125 g/Ha): 20 | Herbicidal activity ZEAMX (Zea mays (ZEAMX); 250 g/Ha): 40 | Herbicidal activity on a 0-100 scale, ZEAMX (Zea mays (ZEAMX); 250 g/Ha): 40 | Herbicidal activity ZEAMX (Zea mays (ZEAMX); 500 g/Ha): 70 | Herbicidal activity on a 0-100 scale, ZEAMX (Zea mays (ZEAMX); 500 g/Ha): 70 | Herbicidal activity AMARE ([2]; 15 g/Ha): 80 | Herbicidal activity AMARE ([2]; 30 g/Ha): 90 | Herbicidal activity AMARE ([2]; 60 g/Ha): 90 | Herbicidal activity AMARE ([2]; 125 g/Ha): 100 | Herbicidal activity AMARE ([2]; 250 g/Ha): 100 | Herbicidal activity AMARE ([2]; 500 g/Ha): 100 | Herbicidal activity on a 0-100 scale, ELEIN (Eleisine indica (ELEIN); 15 g/Ha): 40 | Herbicidal activity on a 0-100 scale, ELEIN (Eleisine indica (ELEIN); 30 g/Ha): 40 | Herbicidal activity on a 0-100 scale, ELEIN (Eleisine indica (ELEIN); 60 g/Ha): 70 | Herbicidal activity on a 0-100 scale, ELEIN (Eleisine indica (ELEIN); 125 g/Ha): 70 | Herbicidal activity on a 0-100 scale, ELEIN (Eleisine indica (ELEIN); 250 g/Ha): 80 | Herbicidal activity on a 0-100 scale, ELEIN (Eleisine indica (ELEIN); 500 g/Ha): 80 | Herbicidal activity BROTE (Bromus tectorum (BROTE); 15 g/Ha): 0 | Herbicidal activity BROTE (Bromus tectorum (BROTE); 30 g/Ha): 0 | Herbicidal activity BROTE (Bromus tectorum (BROTE); 60 g/Ha): 0 | Herbicidal activity BROTE (Bromus tectorum (BROTE); 125 g/Ha): 0 | Herbicidal activity BROTE (Bromus tectorum (BROTE); 250 g/Ha): 10 | Herbicidal activity BROTE (Bromus tectorum (BROTE); 500 g/Ha): 10 | Herbicidal activity BEAVA (Beta vulgaris (BEAVA); 15 g/Ha): 70 | Herbicidal activity BEAVA (Beta vulgaris (BEAVA); 30 g/Ha): 60 | Herbicidal activity BEAVA (Beta vulgaris (BEAVA); 60 g/Ha): 60 | Herbicidal activity BEAVA (Beta vulgaris (BEAVA); 125 g/Ha): 70 | Herbicidal activity BEAVA (Beta vulgaris (BEAVA); 250 g/Ha): 70 | Herbicidal activity BEAVA (Beta vulgaris (BEAVA); 500 g/Ha): 70 | Herbicidal activity on a 0-100 scale, ECHCG ([3]; 15 g/Ha): 70 | Herbicidal activity on a 0-100 scale, ECHCG ([3]; 30 g/Ha): 80 | Herbicidal activity on a 0-100 scale, ECHCG ([3]; 60 g/Ha): 80 | Herbicidal activity on a 0-100 scale, ECHCG ([3]; 125 g/Ha): 80 | Herbicidal activity on a 0-100 scale, ECHCG ([3]; 250 g/Ha): 90 | Herbicidal activity on a 0-100 scale, ECHCG ([3]; 500 g/Ha): 100 | Herbicidal activity ABUTH ([4]; 15 g/Ha): 80 | Herbicidal activity ABUTH ([4]; 30 g/Ha): 90 | Herbicidal activity ABUTH ([4]; 60 g/Ha): 90 | Herbicidal activity ABUTH ([4]; 125 g/Ha): 90 | Herbicidal activity ABUTH ([4]; 250 g/Ha): 100 | Herbicidal activity ABUTH ([4]; 500 g/Ha): 100 | Herbicidal activity HORVW (Hordeum vulgare (HORVW); 15 g/Ha): 0 | Herbicidal activity HORVW (Hordeum vulgare (HORVW); 30 g/Ha): 0 | Herbicidal activity HORVW (Hordeum vulgare (HORVW); 60 g/Ha): 10 | Herbicidal activity HORVW (Hordeum vulgare (HORVW); 125 g/Ha): 10 | Herbicidal activity HORVW (Hordeum vulgare (HORVW); 250 g/Ha): 10 | Herbicidal activity HORVW (Hordeum vulgare (HORVW); 500 g/Ha): 10 | Herbicidal activity on a 0-100 scale, SETFA (Setaria faberi (SETFA) [5]; 15 g/Ha): 0 | Herbicidal activity on a 0-100 scale, SETFA (Setaria faberi (SETFA) [5]; 30 g/Ha): 10 | Herbicidal activity on a 0-100 scale, SETFA (Setaria faberi (SETFA) [5]; 60 g/Ha): 20 | Herbicidal activity on a 0-100 scale, SETFA (Setaria faberi (SETFA) [5]; 125 g/Ha): 20 | Herbicidal activity on a 0-100 scale, SETFA (Setaria faberi (SETFA) [5]; 250 g/Ha): 20 | Herbicidal activity on a 0-100 scale, SETFA (Setaria faberi (SETFA) [5]; 500 g/Ha): 100 | percentage damage caused to the plant, IPOHE [6]: 5 (5=80-100%) | percentage damage caused to the plant, AMARE [7]: 5 (5=80-100%) | percentage damage caused to the plant, LOLPE (Lolium perenne (LOLPE)): 5 (5=80-100%) | percentage damage caused to the plant, SOLNI (Solanum nigrum (SOLNI)): 5 (5=80-100%) | percentage damage caused to the plant, SETFA (Setaria faberi (SETFA) [8]): 5 (5=80-100%) | percentage damage caused to the plant, ECHCG [9]: 5 (5=80-100%)
